In one series the test system is proteinase K. As to the kind of experiment: proteinase K (1:50) in cleavage buffer (0.1 M sodium tetraborate pH 9) with methanol. The following applies: 37° C., up to 24 h.
For the next series, the system named is subtilisin. Nature of the series: subtilisin (1:50) in cleavage buffer (0.1 M ammonium hydrogencarbonate/0.5 M urea pH 8) with methanol. The following applies: 37° C., up to 24 h.
The next series relates to papain. Nature of the series: papain (1:50) in cleavage buffer (0.1 M sodium phosphate/10 mM cysteine, 2 mM EDTA pH 6.5) with methanol. The following applies: 37° C., up to 24 h.
The subject of series [1] is chymotrypsin. Nature of the series: chymotrypsin (1:50) in cleavage buffer (0.1 M ammonium hydrogencarbonate/0.5 M urea pH 8) with methanol. The following applies: 37° C., up to 24 h.
A further series has as its system bromelain. Nature of the series: bromelain (1:50) in cleavage buffer (0.1 M sodium phosphate, 10 mM cysteine, 2 mM EDTA pH 6.5) with methanol. The following applies: 37° C., up to 24 h.
The subject of series [2] is thermolysin. As to the kind of experiment: thermolysin (1:50) in cleavage buffer (0.1 M tris(hydroxymethyl)aminomethane/5 mM calcium chloride pH 7.45) with methanol. The following applies: 37° C., up to 24 h.
Series [3] relates to chymotrypsin. Nature of the series: preparative cleavage, chymotrypsin (1:25) in cleavage buffer (0.1 M ammonium hydrogencarbonate/0.5 M urea pH 8) with methanol. The following applies: 37° C., up to about 70 min.
Series [4] has as its system thermolysin. As to the kind of experiment: thermolysin (1:50) in cleavage buffer (0.1 M ammonium hydrogencarbonate/0.5 M urea pH 8) with methanol. The following applies: 37° C., up to 24 h.
A further series has as its system pepsin. As to the kind of experiment: pepsin. The following applies: cited from earlier work.
Series [5] can be described thus: the buffer used (enzymatic digestion experiments).
In series [6] the test system is Gram-positive aerobic and anaerobic bacteria. The following applies: statement in words, background section; cited from earlier work.
Series [7] deals with pepsin, trypsin, chymotrypsin and mucosal peptidase. The following applies: cited from earlier work.

Entries after “also recorded” stand apart in the source; their conditions may differ.

With “D-Leu-Leu-Phe-Leu(OH)-Leu-D-Arg-Ile-allo-Thr-Gly-Asn(OH)-Ser”, the fragment found result in the series with proteinase K is “Peptide 4-11 (Leu(OH)-Leu-Arg-Ile-(allo)Thr-Gly-Asn(OH)-Ser); also recorded: Peptide 5-11 (Leu-Arg-Ile-(allo)Thr-Gly-Asn(OH)-Ser)”; with subtilisin, “Peptide 4-11 (Leu(OH)-Leu-Arg-Ile-(allo)Thr-Gly-Asn(OH)-Ser); also recorded: Peptide 1-3 (Leu-Leu-Phe)”; in the series on papain, “Peptide 5-11 (Leu-Arg-Ile-(allo)Thr-Gly-Asn(OH)-Ser); also recorded: Peptide 5-9 (Leu-Arg-Ile-(allo)Thr-Gly); also recorded: Peptide 10-11 (Asn(OH)-Ser); also recorded: Peptide 1-4 (Leu-Leu-Phe-Leu(OH))”; with chymotrypsin [1], “Peptide 4-11 (Leu(OH)-Leu-Arg-Ile-(allo)Thr-Gly-Asn(OH)-Ser); also recorded: Peptide 1-3 (Leu-Leu-Phe)”; with bromelain, “Peptide 1-9 (Leu-Leu-Phe-Leu(OH)-Leu-Arg-Ile-(allo)Thr-Gly); also recorded: Peptide 10-11 (Asn(OH)-Ser)”; in the series on thermolysin [2], “Peptide 3-11 (Phe-Leu(OH)-Leu-Arg-Ile-(allo)Thr-Gly-Asn(OH)-Ser); also recorded: Peptide 1-2 (Leu-Leu)”. Also, the fragment found entry in the series with chymotrypsin [3] is “fragment 4-11; also recorded: fragment 1-3 (LLF)”.
With “D-Leu-Leu-Ala(3-cyclohexyl)-Leu(OH)-Leu-D-Arg-Ile-allo-Thr-Gly-Asn(OH)-Ser”, the fragment found result with subtilisin is on record as “Peptide 4-11 (Leu(OH)-Leu-Arg-Ile-(allo)Thr-Gly-Asn(OH)-Ser); also recorded: Peptide 1-3 (Leu-Leu-PTHAla(3-cyclohexyl)*)”; with papain it was “Peptide 5-11 (Leu-Arg-Ile-(allo)Thr-Gly-Asn(OH)-Ser); also recorded: Peptide 5-9 (Leu-Arg-Ile-(allo)Thr-Gly); also recorded: Peptide 10-11 (Asn(OH)-Ser); also recorded: Peptide 1-4 (Leu-Leu-PTHAla(3-cyclohexyl)*-Leu(OH))”; with thermolysin [4], “Peptide 1-2 (Leu-Leu)”; in the series on chymotrypsin [1] it was “Peptide 4-11 (Leu(OH)-Leu-Arg-Ile-(allo)Thr-Gly-Asn(OH)-Ser); also recorded: Peptide 1-3 (Leu-Leu-PTHAla(3-cyclohexyl)*); also recorded: deamidated form (1-11); also recorded: deamidated form (4-11)”; in the series with bromelain, “Peptide 1-9 (Leu-Leu-PTHAla(3-cyclohexyl)*-Leu(OH)-Leu-Arg-Ile-(allo)Thr-Gly); also recorded: Peptide 10-11 (Asn(OH)-Ser)”; with chymotrypsin [3], “fragment 1-3 (LL(3-cyclohexyl)A); also recorded: fragment 4-11”.
Turning to “D-Leucyl-L-leucyl-[(3R)-3-hydroxy-L-phenylalanyl)]-[(3R)-3-hydroxy-L-leucyl]-L-leucyl-D-arginyl-L-isoleucyl-L-allothreonyl-glycyl-[(3S)-3-hydroxy-L-asparaginyl]-L-serine-C1^0.11-O3^0.3-lactone bistrifluoroacetate”, the not cleaved entry with pepsin is “no enzymatic digestion (in the case of pepsin)”. For the same substance, in series [5], the fragment found entry is recorded as “open-chain lysobactin; also recorded: β-hydroxyaspartate unit”.
As to “D-Leucyl-N-1-{(3S,6S,12S,15S,18R,21S,24S,27S,28R)-6-[(1S)-2-amino-1-hydroxy-2-oxoethyl-]18-(3-{[amino(imino)methyl]amino}propyl)-12-[(1S)-1-hydroxyethyl]-3-(hydroxymethyl)-24-[(1R)-1-hydroxy-2-methylpropyl]-21-isobutyl-15-[(1S)-1-methylpropyl]-2,5,8,11,14,17,20,23,26-nonaoxo-28-phenyl-1-oxa-4,7,10,13,16,19,22,25-octaazacyclo-octacosan-27-yl}-L-leucinamide Bistrifluoroacetate [Lysobactin]”, in [6], the “activity against Gram-positive aerobic and anaerobic bacteria” value is given as “strong activity”. Also, the enzymatic digestion result in series [7] was “no (such as in the case of pepsin, for example) or only inadequate enzymatic digestion”.

The values are drawn from US7737120B2 (Aicuris GmbH & Co. KG, priority 2004, dated 2010).
